Consider 63 molecules from ChEMBL document CHEMBL4418316, “Oxazole derivatives for use in the treatment of cancer” (2018).

For orientation: EC50 means the midpoint of the concentration-response curve. The low end stands for an effect from little substance, the high end for a need for much substance.

Tested on in the first test: not listed separately
Description: Ratio of EC50 for CRISPR PAICS knock out mouse LM2 cells to EC50 for mouse wild type LM2 cells. The format is functional.
Conditions: not given
Consider `CCNCCCn1cc(-c2ccc(Cl)c(NC(=O)c3coc(N)n3)c2)cn1`, for which the “Ratio EC50” value was above 80. The same measure, in the same setting: then `CN(C)CCCOc1ncc(-c2ccc(Cl)c(NC(=O)c3coc(N)n3)c2)s1`, with above 30; and `CN1CCN(c2ccc(-c3ccc(Cl)c(NC(=O)c4coc(N)n4)c3)cn2)CC1`, with above 10.

Tested on in another test: not listed separately
Description: Antiproliferative activity against mouse LM2 cells after 72 hrs by Celltiter-glo luminescence assay.
Conditions: not given
The format is functional, cell-based. (In general: Cellular ATP, detected with luciferase, serves as a proxy for viable cell number.)
As to `CNC1CCN(Cc2ncc(-c3ccc(Cl)c(NC(=O)c4coc(N)n4)c3)s2)CC1`, the EC50 is below 100 nM. On the same count and under the same terms, under `Nc1nc(C(=O)Nc2cc(-c3cnn(C4CCCNC4)c3)ccc2Cl)co1` (configuration not stated) stands 100 to 250 nM. On the same count and under the same terms, under `Nc1nc(C(=O)Nc2cc(-c3ccc(OC4CCNC4)nc3)ccc2Cl)co1` (configuration not stated) stands 250 to 500 nM; under `Nc1nc(C(=O)Nc2cc(-c3ccc(CN4CCNCC4)cc3)ccc2Cl)co1`, 250 to 500 nM. Regarding `CSc1ccc(-c2cnc(OCCCN(C)C)s2)cc1NC(=O)c1coc(N)n1`, the EC50 is 100 to 250 nM. In the case of `CN1CCC(n2cc(-c3ccc(Cl)c(NC(=O)c4coc(N)n4)c3)cn2)CC1`, the EC50 was 100 to 250 nM. On the same count and under the same terms, then `CC(C)NCCCOc1ccc(-c2ccc(Cl)c(NC(=O)c3coc(N)n3)c2)cn1`, with 100 to 250 nM. The same measure, in the same setting: under `CN1CC(n2cc(-c3ccc(Cl)c(NC(=O)c4coc(N)n4)c3)cn2)C1` stands 100 to 250 nM. `CN(C)CCCOc1nc(-c2ccc(Cl)c(NC(=O)c3coc(N)n3)c2)cs1` gave an EC50 of 250 to 500 nM. The same measure, in the same setting: under `CN1CCN(Cc2ccc(-c3ccc(Cl)c(NC(=O)c4coc(N)n4)c3)cn2)CC1` stands 250 to 500 nM; under `Nc1nc(C(=O)Nc2cc(-c3cnc(CN4CCNCC4)s3)ccc2Cl)co1`, 100 to 250 nM. On the same count and under the same terms, under `CN(C)CCOc1ccc(-c2ccc(Cl)c(NC(=O)c3coc(N)n3)c2)cc1` stands 100 to 250 nM; under `CCNCCCn1cc(-c2ccc(Cl)c(NC(=O)c3coc(N)n3)c2)cn1`, below 100 nM; under `Nc1nc(C(=O)Nc2cc(-c3cnn(CCCN4CCNCC4)c3)ccc2Cl)co1`, 100 to 250 nM.

As for `CN1CCN(c2ncc(-c3ccc(Cl)c(NC(=O)c4coc(N)n4)c3)s2)CC1`, the EC50 was 100 to 250 nM. The same measure, in the same setting: then `Nc1nc(C(=O)Nc2cc(-c3cnn(C4CCNCC4)c3)ccc2Cl)co1`, with 250 to 500 nM; and `CCN(CC)CCCOc1ncc(-c2ccc(Cl)c(NC(=O)c3coc(N)n3)c2)s1`, with below 100 nM; and `CN(C)CCOc1ncc(-c2ccc(Cl)c(NC(=O)c3coc(N)n3)c2)cn1`, with 250 to 500 nM. Same read-out and setting: under `Nc1nc(C(=O)Nc2cc(-c3ccn(C4CCNCC4)n3)ccc2Cl)co1` stands 250 to 500 nM; under `CN1CCN(CCn2cc(-c3ccc(Cl)c(NC(=O)c4coc(N)n4)c3)cn2)CC1`, 250 to 500 nM. The molecule `CCNCCn1cc(-c2ccc(Cl)c(NC(=O)c3coc(N)n3)c2)cn1` had an EC50 of 100 to 250 nM. Still for that read-out and setting: under `CSc1ccc(-c2nc(CN3CCNCC3)cs2)cc1NC(=O)c1coc(N)n1` stands below 100 nM; under `CNC1CCCN(Cc2csc(-c3ccc(Cl)c(NC(=O)c4coc(N)n4)c3)n2)C1` (configuration not stated), below 100 nM. On the same count and under the same terms, under `CSc1ccc(-c2ccc(OCCCN(C)C)nc2)cc1NC(=O)c1coc(N)n1` stands 250 to 500 nM; under `Nc1nc(C(=O)Nc2cc(-c3nc(CN4CCNCC4)cs3)ccc2Cl)co1`, below 100 nM. The same measure, in the same setting: then `Nc1nc(C(=O)Nc2cc(-c3ccc(CN[C@H]4CC[C@H](N)CC4)nc3)ccc2Cl)co1`, with 250 to 500 nM; and `CN(C)CCCc1ncc(-c2ccc(Cl)c(NC(=O)c3coc(N)n3)c2)s1`, with below 100 nM; and `CN1CCC(NC(=O)Cn2cc(-c3ccc(Cl)c(NC(=O)c4coc(N)n4)c3)cn2)CC1`, with 250 to 500 nM. Molecule `Nc1nc(C(=O)Nc2cc(-c3ccc(OCC4CCCNC4)nc3)ccc2Cl)co1` (configuration not stated) showed an EC50 of 250 to 500 nM. For the molecule `CN(C)CCCOc1ccc(-c2ccc(Cl)c(NC(=O)c3coc(N)n3)c2)nc1`, the EC50 is 250 to 500 nM.

`CN(C)CCOc1ccc(-c2ccc(Cl)c(NC(=O)c3coc(N)n3)c2)cn1` returned an EC50 of 250 to 500 nM. Still for that read-out and setting: then `CNCCCOc1ccc(-c2ccc(Cl)c(NC(=O)c3coc(N)n3)c2)cn1`, with 100 to 250 nM; and `CN(C)CCC(=O)N1CC(Cn2cc(-c3ccc(Cl)c(NC(=O)c4coc(N)n4)c3)cn2)C1`, with 250 to 500 nM; and `Nc1nc(C(=O)Nc2cc(-c3cnc(OC4CCNCC4)s3)ccc2Cl)co1`, with below 100 nM. The same measure, in the same setting: then `CN(C)CCC(=O)N1CCC(n2cc(-c3ccc(Cl)c(NC(=O)c4coc(N)n4)c3)cn2)CC1`, with 250 to 500 nM. The molecule `Nc1nc(C(=O)Nc2cc(-c3cnc(OC4CCNCC4)nc3)ccc2Cl)co1` had an EC50 of 250 to 500 nM.

For `Nc1nc(C(=O)Nc2cc(-c3ccc(CN4CCNCC4)nc3)ccc2Cl)co1`, the EC50 fell in the range of 250 to 500 nM. On the same count and under the same terms, then `CN(C)CCCOc1ncc(-c2ccc(Cl)c(NC(=O)c3coc(N)n3)c2)s1`, with below 100 nM.

In the case of `Nc1nc(C(=O)Nc2cc(-c3ccc(OC4CCNCC4)nc3)ccc2Cl)co1`, the EC50 fell in the range of 250 to 500 nM. On the same count and under the same terms, then `CNCCn1cc(-c2ccc(Cl)c(NC(=O)c3coc(N)n3)c2)cn1`, with 100 to 250 nM; and `CN(C)C1CCN(Cc2csc(-c3ccc(Cl)c(NC(=O)c4coc(N)n4)c3)n2)CC1`, with 100 to 250 nM; and `CNCCCn1cc(-c2ccc(Cl)c(NC(=O)c3coc(N)n3)c2)cn1`, with below 100 nM. Still for that read-out and setting: then `CN(C)CCCOc1ccc(-c2ccc(Cl)c(NC(=O)c3coc(N)n3)c2)cn1`, with 100 to 250 nM; and `CN(C)C1CCN(C(=O)Cn2cc(-c3ccc(Cl)c(NC(=O)c4coc(N)n4)c3)cn2)CC1`, with 250 to 500 nM; and `Nc1nc(C(=O)Nc2cc(-c3ccc(N4CCNCC4)cc3)ccc2Cl)co1`, with 250 to 500 nM. Still for that read-out and setting: under `CN(C)CCCC(=O)N1CCC(n2cc(-c3ccc(Cl)c(NC(=O)c4coc(N)n4)c3)cn2)CC1` stands 250 to 500 nM. `CN1CCN(CCCn2cc(-c3ccc(Cl)c(NC(=O)c4coc(N)n4)c3)cn2)CC1` showed an EC50 of 100 to 250 nM.

In the case of `Nc1nc(C(=O)Nc2cc(-c3ccc(CN4CC5CNCC5C4)nc3)ccc2Cl)co1` (configuration not stated), the EC50 fell in the range of 250 to 500 nM.

The molecule `CN(C)CC(=O)N1CCC(n2cc(-c3ccc(Cl)c(NC(=O)c4coc(N)n4)c3)cn2)CC1` gave an EC50 of 100 to 250 nM.

With `N#Cc1nn(C2CCNCC2)cc1-c1ccc(Cl)c(NC(=O)c2coc(N)n2)c1`, the EC50 was 100 to 250 nM. On the same count and under the same terms, under `CN1CCN(c2ccc(-c3ccc(Cl)c(NC(=O)c4coc(N)n4)c3)cn2)CC1` stands 100 to 250 nM; under `Nc1nc(C(=O)Nc2cc(-c3cnn(C4CCN(CCO)CC4)c3)ccc2Cl)co1`, 100 to 250 nM; under `CC1CN(C(=O)Cn2cc(-c3ccc(Cl)c(NC(=O)c4coc(N)n4)c3)cn2)CCN1` (configuration not stated), 250 to 500 nM. On the same count and under the same terms, then `CN(C)CCCn1cc(-c2ccc(Cl)c(NC(=O)c3coc(N)n3)c2)cn1`, with 100 to 250 nM. The same measure, in the same setting: under `CN1CCC(NCc2ccc(-c3ccc(Cl)c(NC(=O)c4coc(N)n4)c3)cn2)CC1` stands 100 to 250 nM; under `Nc1nc(C(=O)Nc2cc(-c3cnn(C4CCNC4)c3)ccc2Cl)co1` (configuration not stated), 100 to 250 nM; under `Cc1nn(C2CCNCC2)cc1-c1ccc(Cl)c(NC(=O)c2coc(N)n2)c1`, 100 to 250 nM. In the case of `CNC1CCCN(Cc2ncc(-c3ccc(Cl)c(NC(=O)c4coc(N)n4)c3)s2)C1` (configuration not stated), the EC50 was in the range of 100 to 250 nM.

In the case of `Nc1nc(C(=O)Nc2cc(-c3cnn(CCN4CCNCC4)c3)ccc2Cl)co1`, the EC50 lay within 250 to 500 nM.

Regarding `CNCC1CCN(Cc2ncc(-c3ccc(Cl)c(NC(=O)c4coc(N)n4)c3)s2)CC1`, the EC50 was below 100 nM. As for `CN(C)CCNC(=O)Cn1cc(-c2ccc(Cl)c(NC(=O)c3coc(N)n3)c2)cn1`, the EC50 lay within 250 to 500 nM.

Turning to `Nc1nc(C(=O)Nc2cc(-c3cnn(CCCNC4CC4)c3)ccc2Cl)co1`, the EC50 lay within 100 to 250 nM. Molecule `CNC1CCC(n2cc(-c3ccc(Cl)c(NC(=O)c4coc(N)n4)c3)cn2)CC1` (mixture of isomers) registered an EC50 below 100 nM.

The test system of another test is MDA-MB-231. Description: Antiproliferative activity against human MDA-MB-231 cells after 72 hrs by Celltiter-glo luminescence assay. Type of test: functional, cell-based. To be noted: MDA-MB-231, 72 h.
`CN(C)CCCOc1nc(-c2ccc(Cl)c(NC(=O)c3coc(N)n3)c2)cs1` yielded an EC50 of 250 to 500 nM.
